Assay results reported in patent publication US20160368919A1, “NOVEL PYRIDINE PYRAZINONES AS BET-FAMILY BROMODOMAIN INHIBITORS” (Pfizer Inc., priority 2015, published 2016).

What was measured:
[1] = molecular target: T1, BRD4 BD1 (Homo sapiens, UniProt O60885); assay: BRD4 BD1 Fluorescence Polarization (FP) competition binding assay; details: BRD4 BD1 40 nM, probe PFI-411FP 2 nM
T1 construct: His-tagged BRD4 BD1 (44-160); made in house
Summary of the method: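 BRD4 BD1 (40 nM) preincubated 15 min at 20° C. with compound (120 to 0.0012 μM) in HEPES pH 7.4 with 0.08% BSA, then 2 nM PFI-411FP tracer added for 60 min. Fluorescence polarization read (ex 620/em 688 nm); IC50 from four-parameter fit, converted to Ki via Nikolovska-Coleska equation.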

[2] = test system: LPS-induced IL-6 production in human whole blood; assay: IL-6 human whole blood (HWB) assay, LPS-stimulated, HTRF detection; format: cell-based; details: 1 ng/ml LPS, 4 hours
[3] = test system: OPM-2 cells; assay: OPM-2 cell proliferation assay (CellTiter-Glo); format: cell-based
Description: (§1) MM1.S (dexamethasone sensitive) and OPM-2 cells were purchased from ATCC and maintained in RPMI-1640 medium with 10% fetal bovine serum at 37 degrees, 5% CO2. Cells were seeded at 10,000 cells/well in 100 uL medium. The following day compounds or control vehicle (DMSO) were added at indicated concentrations in 10 ul volume. Compound treated OPM-2 cells and MM1.S cell were analyzed for cell density at 72h and 96h, respectively, using CellTiter-Glo® (CTG) reagent (Promega). The CTG assay measures the amount of ATP present, which indicates the number of viable cells in culture.

[4] = test system: C4-2 (parental) cells, AR(+); assay: CRPC cell proliferation assay (CellTiter-Glo), C4-2; format: cell-based; details: CTG at 96h
Description: (§2) Castrate-Resistant Prostate Cancer (CRPC) Cell Proliferation Assay • Cells were seeded into 96-well plates at 2,000-10,000 cells/well in 100 uL medium. Four AR(+) cell lines (LnCaP, C4-2 (parental), C4-2AR-WT and C4-2AR—F876L) and one AR(−) cell line (DU-145) were studied. Compound treated cells were analyzed for cell density at 96h, using CellTiter-Glo® (CTG) reagent (Promega).

[5] = test system: LnCaP cells, AR(+); assay: CRPC cell proliferation assay (CellTiter-Glo), LnCaP; format: cell-based; details: CTG at 96h
Description: as §2

[6] = test system: MM1.S cells; assay: MM1.S cell proliferation assay (CellTiter-Glo); format: cell-based
Description: as §1

[7] = test system: MYC, SOX2, involucrin and Keratin 14 expression in HCC2429 cells; assay: Biomarker analysis in HCC2429 cells (RT-PCR, Western blot); format: cell-based
Description: HCC2429 cells were plated into a 6-well plate (250,000 cells/well). Cells were treated with compounds or control vehicle (DMSO) at the indicated concentrations for 72 hrs. Cells were collected, washed in PBS, and split for western blot and RNA analysis.

[8] = HCC2429, Western blot, 72 hrs, concentration-dependent

CCC(=O)N(C)c1ccc2nc(NCCC(=O)O)c(=O)n([C@@H](CC)c3ccccc3)c2n1 [Example 10, N-{6-[methyl(propanoyl)amino]-3-oxo-4-[(1S)-1-phenylpropyl]-3,4-dihydropyrido[2,3-b]pyrazin-2-yl}-beta-alanine]
IC50 [1]: 62.2 nM | IC50 [2]: 530 nM | IC50 ([3]; Homo sapiens, OPM-2, CTG at 72h): 6 nM | inhibition of proliferation of OPM-2 cells ([3]; dose dependent manner, FIG. 1.B): inhibited proliferation | IC50 [4]: 500 nM | Max % Inh [4]: 87% | Max % Inh [5]: 69% | IC50 ([5]; Homo sapiens): 320 nM | IC50 ([6]; Homo sapiens, MM1.S, CTG at 96h): 2 nM | inhibition of proliferation of MM1.S cells ([6]; dose dependent manner, FIG. 1.A): inhibited proliferation | mRNA expression of involucrin ([7]; HCC2429, RT-PCR, 72 hours, 50 nM, 200 nM and 500 nM, dose dependent): increased | MYC protein level [7, 8]: down-regulated | SOX2 protein level [7, 8]: down-regulated
